Laboratory results as given in patent publication US20260241049A1, “Radiopharmaceutical Compositions Targeting Glypican-3 and Uses Thereof” (RayzeBio, Inc., priority 2023, published 2026).
Starred links: 1 amine or outer side, 2 acyl side, 3 side chain; linkers in the order of their positions; H or OH if unused. Positions of bridges follow the written chain, without caps; N, C: chain ends. Non-standard residues stand in square brackets, D forms with d. Residues, ends and D or L forms follow the SMILES beside them. Groups on a side chain read outwards from the residue. *: point of attachment. DOTA‑Lu = DOTA-lutetium(175) amide on the side-chain amine, O=C([O-])CN1CCN(CC(=O)[O-])CCN(CC(=O)*)CCN(CC(=O)[O-])CC1.[175Lu+3]; Phe(4-(1-Me-pyrazol-4-yl)) = Cn1cc(-c2ccc(C[C@H](N)C(=O)O)cc2)cn1; NMeAla(isoquinolin-7-yl) = CN[C@@H](Cc1ccc2ccncc2c1)C(=O)O; PEG12 = NCCOCCOCCOCCOCCOCCOCCOCCOCCOCCOCCOCCOCCC(=O)O; Phe(4-CH2COOH) = N[C@@H](Cc1ccc(CC(=O)O)cc1)C(=O)O; 3Pal(6-Ph) = N[C@@H](Cc1ccc(-c2ccccc2)nc1)C(=O)O; Biotin = O=C1N[C@H]2[C@H](CS[C@H]2CCCCC(=O)*)N1; Phe(4-COOH) = N[C@@H](Cc1ccc(C(=O)O)cc1)C(=O)O; Piperazinyl(4-CH2COOH) = O=C(O)CN1CCN(*)CC1; NMe2Nal = CN[C@@H](Cc1ccc2ccccc2c1)C(=O)O; X1 = CO[C@@H](O)[C@H](N[*:1])C(=O)[*:2]; AEF = NCCOc1ccc(C[C@H](N)C(=O)O)cc1; NMeI = CC[C@H](C)[C@H](NC)C(=O)O; NMeQ = CN[C@@H](CCC(N)=O)C(=O)O; NMehSer = CN[C@@H](CCO)C(=O)O; NMeK = CN[C@@H](CCCCN)C(=O)O; NMeC = CN[C@@H](CS)C(=O)O; Carboxymethyl = O=C(O)C*; NMeA = CN[C@@H](C)C(=O)O; CO = O=C([*:1])[*:2]

The molecules below were run against Human Glypican3-Fc (Homo sapiens, UniProt P51654) (assay: SPR binding to Glypican-3, Method B-3 (Glypican3-Fc captured on Protein A chip, 5-point dilution series)). Settings: SPR method B-3.
Description: A Protein A sensor chip (Cytiva) was inserted into a Biacore T200 (Cytiva), priming was performed three times with a running buffer: HBS-P+, pH 7.4 (Cytiva), and equilibration was carried out at a flow rate of 30 μL/min. Glypican3-Fc was allowed to react for 60 seconds at a flow rate of 10 μL/min. After capturing human Glypican3-Fe, a peptide solution prepared to 10 mM in DMSO solution was diluted with a running buffer to a final concentration of 10 μM. After that, 5 serial dilution series (100 nM, 50 nM, 25 nM, 10 nM, 5 nM) of peptide solutions were prepared. Using the above samples, peptide kinetics for Glypican3 was obtained by SPR measurement. Kinetics evaluation of Glypican3 was performed by SPR measurements at a flow rate of 10 LL/min, setting the association time to 120 seconds and the disassociation time to 600 seconds.
(§1) The obtained data by Method B-1, Method B-2, Method B-3 and Method B-4 were analyzed by follow. Single Cycle Kinetics was used as the kinetics evaluation model, and curve fitting was performed using Biacore T200 Evaluation Software Version 3.0 (Cytiva).

Molecule	Kd [nM]
CC[C@H](C)[C@@H]1NC(=O)[C@H](Cc2ccc(C(=O)O)cc2)NC(=O)[C@H](CCC(N)=O)N(C)C(=O)[C@H](CC(=O)O)NC(=O)[C@H]([C@@H](C)CC)N(C)C(=O)[C@H](CCCCNC(=O)CCOCCOCCOCCOCCOCCOCCOCCOCCOCCOCCOCCOCCNC(=O)CCCC[C@@H]2SC[C@@H]3NC(=O)N[C@@H]32)N(C)C(=O)CSC[C@@H](C(N)=O)N(C)C(=O)[C@H](Cc2ccc(-c3ccccc3)nc2)NC(=O)CNC(=O)[C@H](Cc2ccc3ccncc3c2)N(C)C(=O)[C@H](Cc2ccc(OCC(=O)O)cc2)NC(=O)[C@H]([C@@H](C)CC)NC1=O [PLB-64] ({CH2CO}-[NMeK]([PEG12-Biotin])[NMeI]D[NMeQ][Phe(4-COOH)]IIY(Carboxymethyl)[NMeAla(isoquinolin-7-yl)]G[3Pal(6-Ph)][NMeC]-NH2; thioether N-12)	1.04
CC[C@H](C)[C@@H]1NC(=O)[C@H]([C@@H](C)OC)NC(=O)[C@H](Cc2ccc(NCC(=O)O)nc2)NC(=O)[C@H](CNC(=O)N2CCN(CC(=O)O)CC2)N(C)C(=O)[C@H](CC(=O)O)NC(=O)[C@H](CCCCNC(=O)N2CCN(CC(=O)O)CC2)N(C)C(=O)[C@H](CCCCN)N(C)C(=O)CSC[C@@H](C(N)=O)N(C)C(=O)[C@H](Cc2ccc(-c3ccccc3)nc2)NC(=O)CNC(=O)[C@H](Cc2ccc3ccncc3c2)N(C)C(=O)[C@H](Cc2ccc(OCC(=O)O)cc2)NC1=O [Conjugate 2-30]	6.6
CC[C@H](C)[C@@H]1NC(=O)[C@H](Cc2ccc(C(=O)O)cc2)NC(=O)[C@H](CCC(N)=O)N(C)C(=O)[C@H](CC(=O)O)NC(=O)[C@H](CCC(N)=O)N(C)C(=O)[C@H](CCC(N)=O)N(C)C(=O)CSC[C@@H](C(N)=O)N(C)C(=O)[C@H](Cc2ccc(-c3cnn(C)c3)cc2)NC(=O)CNC(=O)[C@H](Cc2ccc3ccccc3c2)N(C)C(=O)[C@H](Cc2ccc(OCCN)cc2)NC(=O)[C@H]([C@@H](C)CC)NC1=O [Conjugate 2-53] ({CH2CO}-[NMeQ][NMeQ]D[NMeQ][Phe(4-COOH)]II[AEF][NMe2Nal]G[Phe(4-(1-Me-pyrazol-4-yl))][NMeC]-NH2; thioether N-12)	1
CC[C@H](C)[C@@H]1NC(=O)[C@H]([C@H](O)OC)NC(=O)[C@H](Cc2ccc(C(=O)O)cc2)NC(=O)[C@H](CCC(N)=O)N(C)C(=O)[C@H](CC(=O)O)NC(=O)[C@H](CCOC)N(C)C(=O)[C@H](CCCCNC(=O)N2CCN(CC(=O)O)CC2)N(C)C(=O)CSC[C@@H](C(N)=O)N(C)C(=O)[C@H](Cc2ccc(-c3ccccc3)nc2)NC(=O)CNC(=O)[C@H](Cc2ccc3ccncc3c2)N(C)C(=O)[C@H](Cc2ccc(O)cc2)NC1=O [Conjugate 2-25] ({CH2CO}-[NMeK]([CO-Piperazinyl(4-CH2COOH)])[NMehSer](Me)D[NMeQ][Phe(4-COOH)][X1]IY[NMeAla(isoquinolin-7-yl)]G[3Pal(6-Ph)][NMeC]-NH2; thioether N-12)	6.6
CC[C@H](C)[C@@H]1NC(=O)[C@H]([C@@H](C)OC)NC(=O)[C@H](Cc2ccc(C(=O)O)cc2)NC(=O)[C@H](CCCCNC(=O)N2CCN(CC(=O)O)CC2)N(C)C(=O)[C@H](CC(=O)O)NC(=O)[C@H](CCCCNC(=O)N2CCN(CC(=O)O)CC2)N(C)C(=O)[C@H](CCCCN)N(C)C(=O)CSC[C@@H](C(N)=O)N(C)C(=O)[C@H](Cc2ccc(-c3ccccc3)nc2)NC(=O)CNC(=O)[C@H](Cc2ccc3ccncc3c2)N(C)C(=O)[C@H](Cc2ccc(OCC(=O)N3CCN(CC(=O)O)CC3)cc2)NC1=O [Conjugate 2-32]	1.8
CC[C@H](C)[C@@H]1NC(=O)[C@H]([C@@H](C)OC)NC(=O)[C@H](Cc2ccc(C(=O)O)cc2)NC(=O)[C@H](CNC(=O)N2CCN(CC(=O)O)CC2)N(C)C(=O)[C@H](CC(=O)O)NC(=O)[C@H](CCCCNC(=O)N2CCN(CC(=O)O)CC2)N(C)C(=O)[C@H](CCCCN)N(C)C(=O)CSC[C@@H](C(N)=O)N(C)C(=O)[C@H](Cc2ccc(-c3ccccc3)nc2)NC(=O)CNC(=O)[C@H](Cc2ccc3ccncc3c2)N(C)C(=O)[C@H](Cc2ccc(OCC(=O)O)cc2)NC1=O [Conjugate 2-29]	1

The next lines start with the values.

Kd [nM]	Molecule
0.2	CC[C@H](C)[C@@H]1NC(=O)[C@H](Cc2ccc(C(=O)O)cc2)NC(=O)[C@H](CCC(N)=O)N(C)C(=O)[C@H](CC(=O)O)NC(=O)[C@H](CCOC)N(C)C(=O)[C@H](CCCCN)N(C)C(=O)CSC[C@@H](C(N)=O)N(C)C(=O)[C@H](Cc2ccc(-c3ccccc3)nc2)NC(=O)CNC(=O)[C@H](Cc2ccc3ccccc3c2)N(C)C(=O)[C@H](Cc2ccc(CC(=O)O)cc2)NC(=O)[C@H]([C@@H](C)CC)NC1=O [Conjugate 2-47] ({CH2CO}-[NMeK][NMehSer](Me)D[NMeQ][Phe(4-COOH)]II[Phe(4-CH2COOH)][NMe2Nal]G[3Pal(6-Ph)][NMeC]-NH2; thioether N-12)
0.5	CC[C@H](C)[C@@H]1NC(=O)[C@H]([C@@H](C)OC)NC(=O)[C@H](Cc2ccc(C(=O)O)cc2)NC(=O)[C@H](CCC(N)=O)N(C)C(=O)[C@H](CC(=O)O)NC(=O)[C@H](CCOC)N(C)C(=O)[C@H](CCCCNC(=O)N2CCN(CC(=O)O)CC2)N(C)C(=O)CSC[C@@H](C(N)=O)N(C)C(=O)[C@H](Cc2ccc(-c3ccccc3)nc2)NC(=O)CNC(=O)[C@H](Cc2ccc3ccncc3c2)N(C)C(=O)[C@H](Cc2ccc(O)cc2)NC1=O [Conjugate 2-24] ({CH2CO}-[NMeK]([CO-Piperazinyl(4-CH2COOH)])[NMehSer](Me)D[NMeQ][Phe(4-COOH)]T(Me)IY[NMeAla(isoquinolin-7-yl)]G[3Pal(6-Ph)][NMeC]-NH2; thioether N-12)
0.23	CC[C@H](C)[C@@H]1NC(=O)[C@H]([C@@H](C)OC)NC(=O)[C@H](Cc2ccc(C(=O)O)cc2)NC(=O)[C@H](CCC(N)=O)N(C)C(=O)[C@H](CC(=O)O)NC(=O)[C@H]([C@@H](C)CC)N(C)C(=O)[C@H](CCCCN)N(C)C(=O)CSC[C@@H](C(N)=O)N(C)C(=O)[C@H](Cc2ccc(-c3ccccc3)nc2)NC(=O)CNC(=O)[C@H](Cc2ccc3ccncc3c2)N(C)C(=O)[C@H](Cc2ccc(O)cc2)NC1=O [Conjugate 2-60] ({CH2CO}-[NMeK][NMeI]D[NMeQ][Phe(4-COOH)]T(Me)IY[NMeAla(isoquinolin-7-yl)]G[3Pal(6-Ph)][NMeC]-NH2; thioether N-12)
0.2	CC[C@H](C)[C@@H]1NC(=O)[C@H]([C@@H](C)OC)NC(=O)[C@H](Cc2ccc(C(=O)O)cc2)NC(=O)[C@H](CCC(N)=O)N(C)C(=O)[C@H](CC(=O)O)NC(=O)[C@H](CCOC)N(C)C(=O)[C@H](CCCCN)N(C)C(=O)CSC[C@@H](C(N)=O)N(C)C(=O)[C@H](Cc2ccc(-c3ccccc3)nc2)NC(=O)CNC(=O)[C@H](Cc2ccc3ccncc3c2)N(C)C(=O)[C@H](Cc2ccc(O)cc2)NC1=O [Conjugate 1] ({CH2CO}-[NMeK][NMehSer](Me)D[NMeQ][Phe(4-COOH)]T(Me)IY[NMeAla(isoquinolin-7-yl)]G[3Pal(6-Ph)][NMeC]-NH2; thioether N-12)
0.3	CC[C@H](C)[C@@H]1NC(=O)[C@H]([C@@H](C)OC)NC(=O)[C@H](Cc2ccc(C(=O)O)cc2)NC(=O)[C@H](CCC(N)=O)N(C)C(=O)[C@H](CC(=O)O)NC(=O)[C@H](CCOC)N(C)C(=O)[C@H](C)N(C)C(=O)CSC[C@@H](C(N)=O)N(C)C(=O)[C@H](Cc2ccc(-c3ccccc3)nc2)NC(=O)CNC(=O)[C@H](Cc2ccc3ccccc3c2)N(C)C(=O)[C@H](Cc2ccc(OCCN)cc2)NC1=O [Conjugate 2-28] ({CH2CO}-[NMeA][NMehSer](Me)D[NMeQ][Phe(4-COOH)]T(Me)I[AEF][NMe2Nal]G[3Pal(6-Ph)][NMeC]-NH2; thioether N-12)
0.3	CC[C@H](C)[C@@H]1NC(=O)[C@H]([C@@H](C)OC)NC(=O)[C@H](Cc2ccc(C(=O)O)cc2)NC(=O)[C@H](CCC(N)=O)N(C)C(=O)[C@H](CC(=O)O)NC(=O)[C@H]([C@@H](C)CC)N(C)C(=O)[C@H](CCCCN)N(C)C(=O)CSC[C@@H](C(N)=O)N(C)C(=O)[C@H](Cc2ccc(-c3ccccc3)nc2)NC(=O)CNC(=O)[C@H](Cc2ccc3ccncc3c2)N(C)C(=O)[C@H](Cc2ccc(OCC(=O)O)cc2)NC1=O [Conjugate 2-26] ({CH2CO}-[NMeK][NMeI]D[NMeQ][Phe(4-COOH)]T(Me)IY(Carboxymethyl)[NMeAla(isoquinolin-7-yl)]G[3Pal(6-Ph)][NMeC]-NH2; thioether N-12)

These molecules were tested against T1, human Glypican3 (R&D systems, catalog number: 2119-GP) (human, UniProt P51654 25-559, limits assumed) (assay: SPR (Biacore T200), Method B-1: human Glypican3 amine-coupled to CM3 chip, peptide as analyte). Settings: not given.
T1 construct: Bought recombinant protein, amine-coupled to the chip in Method B-1; also called GPC3; hGPC3
Description: A CM3 sensor chip (Cytiva) was inserted into a Biacore T200 (Cytiva), primed three times with a running buffer: HBS-P+, pH 7.4 (Cytiva), and equilibrated at a flow rate of 30 μL/min. Ligand immobilization was performed at a flow rate of 10 μL/min. 50 μL each of 60 mM EDC solution (Cytiva) and 650 mM NHS solution (Cytiva) were mixed, and then reacted at a flow rate of 10 μL/min for 420 seconds, 150 μL of 0.2 μM human Glypican3 (R&D systems, catalog number: 2119-GP) solution which was prepared by diluting with 10 mM acetic acid solution (pH 5.0), was reacted at a flow rate of 10 μL/min for 420 seconds, and Glypican3 was immobilized on the CM3 sensor chip. After immobilization, 1.0 M ethanolamine aqueous solution (Cytiva) was allowed to react for 420 seconds at a flow rate of 10 μL/min for capping. A peptide lysate prepared to 10 mM in DMSO solution was diluted with running buffer to a final concentration of 10 μM peptide lysate. […] Using the above samples, peptide kinetics for Glypican3 was obtained by SPR measurement. Kinetics evaluation of Glypican3 was performed by SPR measurements at a flow rate of 10 μL/min, setting the association time to 120 seconds and the disassociation time to 600 seconds.
as §1

Kd [nM]	Molecule
0.29	Ac-[NMeK](DOTA‑Lu)[NMeI]D[NMeQ][Phe(4-COOH)]IIY[NMeAla(isoquinolin-7-yl)]G[3Pal(6-Ph)][NMeC]-NH2 (bridge N-12; not fully specified (bridges); printed as MeK(DOTA-Lu)-MeI-D-MeQ-F4COO-I-I-Y-MeNal27N-G-3Py6Ph-MeC-NH2) [Lu-C-1]
